Data taken from US20090208543A1, “METHOD AND APPARATUS FOR APPLYING A PROTECTIVE ORAL CARE COMPOSITION” (Oral Health Clinical Services, priority 2008, published 2009).

Test: Tooth bleaching effectiveness of gels on extracted human teeth (chroma meter, Delta E)
Settings: comparison of catalase inhibitors
Description: Tooth bleaching effectiveness of the above gels was determined by using extracted human teeth. The teeth were freshly extracted, freed of all adherent tissues and stored in a sterile saline solution. The teeth were removed and the color was measured using a chroma meter commercially available from MINOLTA CR221. Readings were taken to record the L*, a*, and b* parameters. The teeth were then incubated in the various gels for 30 minutes. After this period, the gels were washed off and L*, a*, and b* parameters color re-measured. The change in color (Delta E) was then calculated using the CIE L*a*b* color difference equation:
Delta E=[(delta L*)^2+(delta a*)^2+(delta b*)^2]^0.5

[F-].[Na+] [sodium fluoride]
effectiveness among the compositions comprising the inhibitors: least effective
